The text below walks through data of paper PMC4911353, “Pharmacologic Inhibition of Host Phosphodiesterase-4 Improves Isoniazid-Mediated Clearance of Mycobacterium tuberculosis” (Frontiers in Immunology, 2016).

Data set [1] concerns Mycobacterium tuberculosis CDC1551. The class given is in vivo. The following applies: B6D2F1 mice, 50 mg/kg daily.
In a further data set the test system is lung granulomas. In words: Histology and morphometric measurement of lung granulomas in Mtb-infected mice. The class given is in vivo. The procedure: Formalin-fixed lung tissues of Mtb-infected mice were paraffin-embedded, cut into […] sections, and stained with hematoxylin and eosin (H&E) or acid fast staining by Ziehl–Neelsen (ZN) method to visualize host cells and Mtb, respectively (IDEXX-RADIL Laboratories Inc., MO, USA) as described in Ref. ([11]). Stained sections were photographed in a Nikon Microphot-FX photomicrographic system and analyzed with NIS-Elements F3.0 software (Nikon Instruments Inc., NY, USA). Lung granuloma size was morphometrically measured using PathScan Enabler IV scanner (Meyer Instruments, Houston, TX, USA) and SigmaScan Pro software (Systat Software, Inc., CA, USA). Histopathologic analysis and morphometry were performed by an experienced pathologist blinded to the sample identity.

Another data set relates to Mtb. The following applies: mouse pulmonary TB model; cited from earlier work.

As to `NNC(=O)c1ccncc1` [INH, isoniazid], in data set [1], the “Change in lung CFUs from 84 to 112 days postinfection” value was “no significant decline”. Besides, the “Lesion area (granuloma size) versus untreated mice” value in the data set with lung granulomas (28 days postinfection) is listed as “significant differences”. Besides, in the data set on lung granulomas (112 days postinfection), the “Granuloma size versus untreated group” value is “significant reduction”. For the compound `COc1ccc([C@]2(C#N)CC[C@@H](C(=O)O)CC2)cc1OC1CCCC1` [cilomilast], the “Impact on antibiotic-mediated bacillary clearance” value in the data set with Mtb is on record as “no impact”.

In the case of `COc1ccc(C2CNC(=O)C2)cc1OC1CCCC1` (centres unmarked) [rolipram], the “Impact on antibiotic-mediated bacillary clearance” value in the data set on Mtb was “no impact”.
